For test [1], the system named is Intracellular ROS production. As to the kind of experiment: Real-time ROS production (DCF assay). The settings on record: dose-independent, even at highly toxic MMS 80 μg/mL. The class given is cell-based. On the procedure: Intracellular ROS production was detected using DCFH-DA probe (Sigma) (Zanotto-Filho et al., 2010, Cancer Lett 288, 192-203). This reagent enters the cells and reacts predominantly with highly oxidizing species of ROS, such as hydroxyl radicals, hydroperoxides, and peroxynitrite, thus producing the fluorophore DCF. Briefly, cells were seeded in black-edge clear bottom 96-well plates. After reaching 70% confluence, medium was changed and cells were incubated with 20 μM DCFH-DA dissolved in medium containing 0.5% FBS. After 1 h pre-incubation to allow DCFH-DA uptake, treatments were added to its respective final concentrations and DCF fluorescence was monitored at 0.5, 1, 3, 8, 12, 16 and 24 h in a fluorescence reader (Ex/Em=485/532 nm). Hydrogen peroxide was used as a positive control and N-acetylcysteine (NAC), GSH-ethyl-ester (GSH-E) and Trolox were used as antioxidant standards. As a control, at the end of 24 h, cell viability was assessed and compared to wells in the absence of DCFH-DA.

Test [2] has as its system AP1-responsive firefly luciferase construct in MDA-MB231 cells. As to the kind of experiment: AP-1 gene reporter assay. The class given is cell-based, human. On the procedure:
(§1) Prior to transfection, cells were plated in 96-well plates to 80-90% confluence (100 μL antibiotic free-medium) after 24 h. When used, siRNA were incubated by reverse transfection during cells seeding. […] A mixture of non-inducible firefly luciferase construct and constitutively expressing Renilla luciferase construct (40:1) were used as negative controls. Approximately 24 h post-transfection, the medium was changed and the cells were treated for 12 h with alkylating agents (with/out 6 h pre-treatments). At the end of this period, medium was changed to drug-free fresh medium (to minimize the effect of alkylating toxicity on promoters activity) and cells were kept for an additional 12 h.

Test [3] deals with protein sulfhydryl (protein-SH) groups. As to the kind of experiment: Protein sulfhydryl groups (dibromobimane assay). The settings on record: 12 h treatment. The class given is cell-based. The procedure: Protein reduced thiol groups (Protein-SH) were measured by dibromobimane assays with minor modifications (PMID:20463849). The 6-well plated cells (500,000 cells) were scraped in 0.6 mL PBS and 200 μL Perchloric acid (6 N) was added to precipitate proteins. The samples were incubated for 5 min in ice, centrifuged (14,000×g) Supernatants containing small peptides and glutathione were discarded and pellets were resuspended in 100 μL NaOH 0.1N, neutralized with 100 μL ice cold Perchloric acid (0.1 N), and 0.1 N PBS was added to keep pH constant. A stock solution of 4 mM dibromobimane in DMSO was added to a final concentration 40 μM, and incubated for 30 30 min at 37° C. Dibromobimane-protein fluorescence was measured at Ex=393 and, Em=477 nm.

The test system of test [4] is NFκB-responsive firefly luciferase construct in MDA-MB231 cells. As to the kind of experiment: NFκB gene reporter assay. The class given is cell-based, human. On the procedure:
as §1
For orientation: Reporter assays use an easily measured gene product as a stand-in for the process of interest.

For the next test, the system named is IL8, MMP1, MMP3 and PGE2. As to the kind of experiment: ELISA of inflammatory mediators in culture medium. The class given is cell-based, human. On the procedure: (§2) Quantification of MMP1 and MMP3 content in culture medium was assessed using RayBio-MMP3 and RayBio-MMP1 Elisa Kit (RayBiotech, Inc); IL8 was analyzed by Human IL-8 Elisa kit (Pierce Biotechnology). The levels of prostaglandin E2 (PGE2) were determined using the Prostaglandin E2 EIA Kit Monoclonal (Cayman Chemical Company). Culture media were diluted to fit within the standard curves. For conditioned media (CM) preparation for invasion and in vitro angiogenesis experiments, 12-well plated cells were treated with MMS (or MMS plus inhibitors) for 8 h in the presence of 10% FBS, twice washed with HBSS, and incubated with 700 μL drug/serum-free fresh medium for additional 12 h. Thereafter, the conditioned fresh medium was collected and directly used for migration and invasion experiments in order to reduce freezing associated loss of activity.
A general note: ELISA stands for enzyme-linked immunosorbent assay.

In test [5] the test system is MAPKs (ERK1/2, JNK1/2 and p38) and ATF2. The experiment in a line: Western blot of MAPK phosphorylation. It counts as cell-based. Conditions: 8 h. On the procedure:
Western blot. Protein lysates were prepared using RIPA buffer containing 5% sodium deoxycholate, 0.1% SDS, 0.1% Igepal in PBS with a cocktail of protease and phosphatase inhibitors (1 mM PMSF, 1 mM sodium orthovanadate, 1 mM NaF, and 30 μL/mL aprotinin (Sigma-Aldrich, USA)) and clarified by centrifugation. Protein concentration was determined using Bradford Protein Assay Reagent (Biorad, Hercules, Calif.). Equal amounts of protein were resolved using 8-12% SDS polyacrylamide gel, transferred onto nitrocellulose membranes (Hybond-ECL, GE Healthcare Lifesciences, Piscataway, N.J.) and detected using Lumiglo system (Cell Signaling Technology, Calif.) and x-ray films. Primary antibodies included COX-2 (#4842), NRF2 (D1C9), p-JNK1/2 (Thr183/Tyr185, #4671), p-p38 (Thr180/Tyr182, #9216), p-ERK1/2 (Thr202/Tyr204, #9101), BiP/GRP78 (C50B12), IRE1a (14C10), CHOP (L63F7) and PERK (D11A8) from Cell Signaling Technology; p-IRE1a (Ser724; NB100-2323) from Novus Biologicals; GCLC (Ab41463), beta-actin (ab8227) and ATF6 (Ab37149) from Abcam; p-PERK (Thr 981, sc-32577) and ATF3 (C19) were purchased from Santa Cruz. All primary antibodies were used at 1:1000 dilutions and secondary antibodies were 1:3000 in TBS-T with 5% BSA.

A further test relates to human endothelial cells. As to the kind of experiment: In vitro angiogenesis (Angiophase kit, CD31). Conditions: CM from sorafenib treatments. It counts as cell-based. The procedure: as §2
The Angiophase kit (MBL Inc.) was used to assess the angiogenic potential of conditioned media (CM) from breast cancer cells or the direct effect of pharmaceutical inhibitors (free-drug system) on vessel-like structures formation in vitro. With this kit, human endothelial cells are co-cultured in a specially designed medium to form threadlike tubule structures. These gradually join up to form a network of anastomosing tubules, which resemble the capillary bed found in the CAM assay. Kit-provided cryopreserved co-culture of human endothelial cells were plated and kept for 96 h (proliferative phase) without treatments. Afterwards, the cells were maintained in the presence of conditioned medium from alkylating agent treated cells or control medium for a total of 14 days (angiogenic/vasculogenic phase). Medium was changed each 2 days. At the end of treatments, the cells were fixed and immune-stained for CD31 (PECAM-1), following by incubation with secondary antibody conjugate. ELISA was developed using the soluble substrate p-nitrophenyl-phosphate (p-NPP) whose product was colorimetrically read at 405 nm. After ELISA assays, the wells were washed with dH2O and tubule staining was performed by incubating CD31-stained tubules with the substrate BCIP/NBT, which form insoluble precipitates. Tubules were counted and photographed for qualitative monitoring.

The mark [6] stands for this setting: MDA-MB231, pre-incubation with inhibitor.

This note sets out measurements from patent publication US10231958B2, “Methods and compositions for enhancing chemotherapy” (THE BOARD OF REGENTS OF THE UNIVERSITY OF TEXAS SYSTEM, priority 2015, dated 2019).

“Also recorded” adds a separate entry of the source.

Regarding `COS(C)(=O)=O` [MMS, methyl-methanesulfonate], the “increase in ROS” value in test [1] is on record as 1.5 fold. In test [2] (alkylating agent alone), the “activation of AP-1 luciferase reporter” value is “activated both NFκB and AP-1 luciferase reporter constructs”. The protein sulfhydryl residues entry in test [3] is on record as “deplete protein sulfhydryl residues”. For the same molecule, the “activation of NFκB luciferase reporter” value in test [4] (alkylating agent alone) was “activated both NFκB and AP-1 luciferase reporter constructs”. For the same molecule, the “production of IL-8, MMP-1 and MMP-3” value in the test on IL8, MMP1, MMP3 and PGE2 (MDA-MB231 culture medium) is “enhances the production of MMP1, MMP3 and IL8”. In the test with IL8, MMP1, MMP3 and PGE2 (human cancer cells, 12 h), the “prostaglandin E2 (PGE2) in culture medium and COX-2 protein in lysates” value is “increased levels of prostaglandin E2 (PGE2)”. In test [5] (MDA-MB231 and MEF), the “phosphorylation of MAPK” value is “increased phosphorylation of the three MAPK”.
Turning to `CNC(=O)c1cc(Oc2ccc(NC(=O)Nc3ccc(Cl)c(C(F)(F)F)c3)cc2)ccn1` [sorafenib, 4-[4-[[4-chloro-3-(trifluoromethyl)phenyl]carbamoylamino]phenoxy]-N-methyl-pyridine-2-carboxamide], in test [2] (setting [6]), the “effect on MMS-induced activation of AP-1 reporter” value is “strong inhibitory effects on both promoters; also recorded: blocked NFκB and AP-1 promoter activation”. The “angiogenesis with CM from treated cells” value in the test with human endothelial cells was “inhibition of angiogenesis”. Moreover, in test [4] (setting [6]), the “effect on MMS-induced activation of NFκB reporter” value was “strong inhibitory effects on both promoters; also recorded: blocked NFκB and AP-1 promoter activation”. The “effect on MMS/alkylation-induced IL8, MMP1, MMP3 and PGE2 secretion and COX-2” value in the test on IL8, MMP1, MMP3 and PGE2 (MDA-MB231, 12 h) is “exerted the strongest effect in blocking alkylation-induced IL8, COX-2/PGE2, MMP1 and 3”. For the same molecule, the “effect on MMS-induced MAPK phosphorylation” value in test [5] (MDA-MB231 cells) was “blocked both MMS-induced phosphorylation of ERK1/2 and JNK1/2 as well as basal ERK1/2”.
